Publication PMC4596572, “Ligand Discovery for the Alanine-Serine-Cysteine Transporter (ASCT2, SLC1A5) from Homology Modeling and Virtual Screening” (PLoS Computational Biology, 2015)
Where two headings read alike, the source gives them in different places.

Assays:
[1] = biological target: T1, rat ASCT2 (Rattus norvegicus, UniProt D3ZJ25); experiment: Whole-cell patch-clamp recording of ASCT2-associated anion current in transfected HEK293 cells; format: cell-based; conditions: for Km: apparent Km for the active compounds from anion current dose response, called Ki in text for the inhibitors L-DOPS and γ-FBP; for Imax, maximum currents relative to 1 mM alanine: whole-cell anion current, membrane potential 0 mV, internal 130 mM NaSCN and 10 mM alanine, negative = outward current (inhibitor)
T1 construct: The coding region of the cDNA was subcloned into the EcoRI site of the pBK-CMV vector; expressed in transfected cells; host or cells: HEK293 (human embryonic kidney), transient transfection, pBK-CMV vector
T1 sequence (D3ZJ25 1-555): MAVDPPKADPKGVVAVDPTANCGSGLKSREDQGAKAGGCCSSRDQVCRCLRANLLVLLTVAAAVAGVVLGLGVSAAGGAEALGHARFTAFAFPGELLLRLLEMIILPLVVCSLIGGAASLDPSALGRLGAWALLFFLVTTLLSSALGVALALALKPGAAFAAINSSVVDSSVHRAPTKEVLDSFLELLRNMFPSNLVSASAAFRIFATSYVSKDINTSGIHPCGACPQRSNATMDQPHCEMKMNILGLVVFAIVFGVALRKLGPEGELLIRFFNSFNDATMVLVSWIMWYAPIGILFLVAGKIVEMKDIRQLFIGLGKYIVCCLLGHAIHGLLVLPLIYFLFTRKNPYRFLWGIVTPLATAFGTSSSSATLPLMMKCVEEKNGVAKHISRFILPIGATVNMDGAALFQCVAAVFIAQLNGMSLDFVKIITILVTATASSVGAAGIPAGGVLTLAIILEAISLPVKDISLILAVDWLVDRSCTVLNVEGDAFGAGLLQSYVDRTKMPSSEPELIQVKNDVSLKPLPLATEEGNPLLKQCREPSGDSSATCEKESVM
From the text: We used transporter-mediated anion current as a measure of transport/inhibition activity […] We have previously shown that anion current is a measure of transport activity, due to the kinetic coupling of transport and anion flux, and this fact is also well established for the homologous glutamate transporters, which have a much more rigorously determined pharmacology. Anion current is activated when the transporter visits certain states in the transport cycle, such as the fully Na^+/substrate occupied state (substrate-induced anion conductance), or the Na^+-bound state (leak conductance). Thus, transported substrates induce anion current and non-transported inhibitors block the leak anion current. […] Functional characterization by patch clamping is a powerful approach when combined with virtual screening that prioritizes molecules from large libraries, but precludes screening of large amounts of compounds due to its labor-intensive nature.
cDNA coding for rat ASCT2 was kindly provided by S. Bröer. The coding region of the cDNA was subcloned into the EcoRI site of the pBK-CMV vector (Stratagene). The cDNA construct was used to transiently transfect human embryonic kidney cells (HEK293, ATCC No. CGL 1573) with leptrime reagent (Polyplus, Ilkrich, France). Transfection was performed as detailed in the supplier’s instructions. Electrophysiological recordings were performed 24–48 h after transfection.
ASCT2-associated whole-cell currents were recorded with an Adams & List EPC7 amplifier (HEKA, Lambrecht, Germany) using voltage-clamp conditions. Open-tip electrode resistances were 2–3 MΩ and the series resistance (R S) was 5–8 MΩ. R S was not compensated in the recordings, as compensation had no effect on the magnitude of the observed currents. The extracellular bath solution contained (in mM): 140 NaMES, 2 MgGluconate2, 2 CaGluconate2, and 10 HEPES (MES = methanesulfonic acid, pH 7.4 / NaOH). The pipette solution contained (in mM): 130 NaSCN, 2 MgCl2, 10 EGTA, 10 HEPES, and 10 L-alanine/cysteine (pH 7.3 / NaOH). Using this intracellular solution, the transporters operate in the Na^+/alanine exchange mode. Here, external alanine is exchanged with internal alanine in the absence of net transport. The exchange mode is associated with the activation of an uncoupled anion current, which was used as an indirect measure of transport activity. The currents were low pass filtered at 3 kHz (EPC7 built-in filter) and digitized with a digitizer board (Digidata 1200, Axon Instruments, Foster City, CA, USA) at a sampling rate of 10–50 kHz (controlled by software, Axon PClamp7). All experiments were performed at room temperature. Rapid solution exchange was essentially performed as described previously. Briefly, substrates and inhibitors were applied to the ASCT2-expressing HEK293 cells with a quartz tube (350 μm tube diameter) positioned at a distance of ≈0.5 mm to the cell. The linear flow rate of the solutions emerging from the opening of the tube was approximately 5–10 cm/s.

[2] = system: C8161 human melanoma cells; experiment: MTT cell viability assay; format: cell-based; conditions: 5 mM
Experimental: Glutamine is a conditionally essential amino acid required for cancer cell growth, being used as fuel source for the TCA cycle, and a carbon and nitrogen source for macromolecule production. We therefore examined cell viability in the presence of chloroalanine (5 mM), AOC (5 mM) and γ-FBP (5 mM) using an MTT assay in C8161 cells (Methods).
Human melanoma cell line C8161 culture was performed as previously described. Media used was DMEM/F12 medium (Life Technologies) containing 5% (v/v) fetal bovine serum (FBS), penicillin-streptomycin solution (Sigma-Aldrich). Cells were maintained at 37°C in a fully humidified atmosphere containing 5% CO2. Inhibitors (chloroalanine, AOC and γ-FBP) were resuspended in H2O, with control cells treated with the appropriate concentrations of vehicle alone.
MTT (3–(4,5–dimethylthiazol–2–yl)–2,5–diphenyl […] bromide; Millipore) cell viability assay was performed as previously described. Briefly, C8161 cells (1 × 10^4/well) were seeded in a flat-bottomed 96–well plate, incubated overnight in media, prior to culture with or without each inhibitor. MTT solution (10 μL) was added to each well for 4 h, prior to addition of 100 μL of isopropanol/HCl solution. Solution was mixed thoroughly and plates immediately read at 570 nm/630 nm in a PolarStar plate reader (BMG). Results were plotted as percentages of the absorbance observed in control wells.

Row | Compound | Km [1] | Imax, maximum currents relative to 1 mM alanine [1] | Cell viability (MTT) [2] | Anion current response / ligand character ([1]; whole-cell current, result in words) | Ki ([1]; absence of alanine, read-out: apparent Ki in the absence of alanine) | Concentration down to which alanine activation is alleviated ([1]; alanine + compound) | Ki ([1]; alanine-induced currents (100 μM alanine), read-out: Ki in the presence of alanine) | Response relative to saturating [alanine] ([1]; outward current)
1 | NC1(C(=O)O)COC1 | 220 ± 20 µM | 1.17 ± 0.13 | significantly inhibited cell viability |  |  |  |  | 
2 | NC(CCl)C(=O)O (centres unmarked) [Chloroalanine] | 900 ± 120 µM | 1.28 ± 0.22 | significantly inhibited cell viability | activated inwardly-directed anion currents |  |  |  | 
3 | O=C(O)C1CC(Cc2ccccc2F)CN1 (centres unmarked) [γ-FBP] | 87 ± 22 µM | -0.64 ± 0.13 | significantly inhibited cell viability |  | 87 ± 22 µM | ≥ 100 µM | 250 ± 75 µM | -0.64 ± 0.13
